Test results as given in patent US10501479B2, “Benzenesulfonyl-asymmetric ureas and medical uses thereof” (HELSINN HEALTHCARE SA, priority 2016, dated 2019).

Legend:
[1] = biological target: T1, recombinant human ghrelin receptor (HEK293/GRLN) (Homo sapiens, UniProt Q92847); test: Ghrelin inverse agonist potency (EC50) with IP-1 (IP-One HTRF) assay; format: cell-based; settings: IP-1 assay, HEK293/GRLN; read-out: Activity EC50 (ghrelin inverse agonist potency)
T1 construct: expressed in transfected cells
Outline: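 HEK293/GRLN cells were seeded 18-22 hours before the test, then exposed to compound in stimulation buffer for 1 hour at 37° C, 5% CO2. IP-1 was detected by IP-One HTRF (IP1-d2 plus Tb-cryptate, 1 hour RT), reading 620 and 665 nm; the inverse agonist EC50 was derived from this.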

[2] = biological target: T2, GHSR-1a (HEK293/GHSR1a cell line) (Homo sapiens, UniProt Q92847); test: Ghrelin agonist potency (EC50) with calcium FLIPR assay; format: cell-based; settings: HEK293/GHSR1a, read-out: Activity EC50/EMax: EC50 (ghrelin agonist potency)
T2 construct: expressed in transfected cells; host or cells: HEK293/GHSR1a cell line
Outline: (§1)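 Potency values were estimated from dose-response curves of relative fluorescence, with calcium followed for 2 minutes after additions at t=20 sec. Agonism was tested with compound alone. Antagonism was tested with compound plus 10 nM ghrelin and scored as a reduction of the ghrelin signal.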

[3] = biological target: T2, GHSR-1a (HEK293/GHSR1a cell line); test: Ghrelin antagonist potency (IC50) with calcium FLIPR assay, ghrelin 10 nM; format: cell-based; settings: HEK293/GHSR1a, ghrelin 10 nM, read-out: Activity IC50 (ghrelin antagonist potency)
Outline: as §1

[4] = Metabolic stability in human liver microsomes; format: in vitro ADME
Outline: (§2)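 Depletion of test compound in NADPH-fortified liver microsomes (pH 7.4 phosphate buffer, 37 °C) is followed over 90 min. Remaining compound in quenched samples is quantified by LC-MS/MS against the time-zero level.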

[5] = Metabolic stability in mouse liver microsomes; format: in vitro ADME
Outline: as §2

T2 sequence (Q92847 whole entry): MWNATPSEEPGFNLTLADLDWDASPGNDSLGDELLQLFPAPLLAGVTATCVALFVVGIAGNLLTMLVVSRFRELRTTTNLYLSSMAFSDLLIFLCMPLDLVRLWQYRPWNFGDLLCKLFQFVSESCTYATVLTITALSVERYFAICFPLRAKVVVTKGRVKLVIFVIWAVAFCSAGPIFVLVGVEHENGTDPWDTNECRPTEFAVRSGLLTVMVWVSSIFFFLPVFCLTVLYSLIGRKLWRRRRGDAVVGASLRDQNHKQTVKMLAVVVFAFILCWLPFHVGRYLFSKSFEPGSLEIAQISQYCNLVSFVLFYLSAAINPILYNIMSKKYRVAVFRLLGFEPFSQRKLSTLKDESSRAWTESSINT
T1 sequence (Q92847 whole entry): as above

Structure (SMILES) | EC50 [1] [nM] | EC50 [2] [nM] | IC50 [3] [nM] | Metabolic Stability Study H = human [4] | Metabolic Stability Study M = mouse [5]
COc1cccc(C(C)NC(=O)Nc2ccc(S(=O)(=O)Cc3ccc4c(c3)CN(C)C4)cc2)c1 (stereo not shown) [H1326, 1-(1-(3-methoxyphenyl)ethyl)-3-(4-(((2-methylisoindolin-5-yl)methyl)sulfonyl)phenyl)urea] | 6.9 | > 30000 | 9.8 | 129.5 µL/min/mg | 60.5 µL/min/mg
COc1cccc(C(C)NC(=O)Nc2ccc(S(=O)(=O)Cc3ccc4c(c3)CN(C)C4)cc2)c1 (stereo not shown) [H1327, 1-(1-(3-methoxyphenyl)ethyl)-3-(4-(((2-methylisoindolin-5-yl)methyl)sulfonyl)phenyl)urea] | 5.5 | > 30000 | 5.6 | 165.3 µL/min/mg | 144.8 µL/min/mg
CC(NC(=O)Nc1ccc(S(=O)(=O)Nc2ccc3c(c2)CCN(C)C3)cc1)c1ccccc1Cl (stereo not shown) [H1334, 4-(3-(1-(2-chlorophenyl)ethyl)ureido)-N-(2-methyl-1,2,3,4-tetrahydroisoquinolin-6-yl)benzenesulfonamide] | 8.2 | > 30000 | 9.18 | 109.8 µL/min/mg | 97.9 µL/min/mg
C[C@@H](NC(=O)Nc1ccc(S(=O)(=O)Nc2ccc3c(c2)CN(C)C3)cc1)c1ccccc1 [H1337, (R)-N-(2-methylisoindolin-5-yl)-4-(3-(1-phenylethyl)ureido) benzenesulfonamide] | 10.5 | > 30000 | 24.1 | 58.6 µL/min/mg | 39.2 µL/min/mg
COCCN1Cc2ccc(CS(=O)(=O)c3ccc(NC(=O)NC(C)c4ccccc4)cc3)cc2C1 (stereo not shown) [H1338, 1-(4-(((2-(2-methoxyethyl)isoindolin-5-yl)methyl)sulfonyl)phenyl)-3-(1-phenylethyl)urea] | 6.5 | > 30000 | 7.6 | 106.9 µL/min/mg | 242.1 µL/min/mg
CC(NC(=O)Nc1ccc(S(=O)(=O)Cc2ccc3c(c2)CN(C2CCOC2)C3)cc1)c1ccccc1.O=C(O)C(F)(F)F (stereo not shown) [H1340, 1-(1-phenylethyl)-3-(4-(((2-(tetrahydrofuran-3-yl)isoindolin-5-yl)methyl)sulfonyl)phenyl)urea] | 3.3 | > 30000 | 4.7 | 282.4 µL/min/mg | > 500 µL/min/mg
CC(NC(=O)Nc1ccc(S(=O)(=O)Cc2ccc3c(c2)CCN(C)C3)cc1)c1ccccc1F (stereo not shown) [H1342, 1-(1-(2-fluorophenyl)ethyl)-3-(4-(((2-methyl-1,2,3,4-tetrahydroisoquinolin-6-yl)methyl)sulfonyl)phenyl)urea] | 7.9 | > 30000 | 17.4 | 80.1 µL/min/mg | 118.4 µL/min/mg
C[C@@H](NC(=O)Nc1ccc(S(=O)(=O)Cc2ccc3c(c2)CCN(C)C3)cc1)c1cccc(Cl)c1Cl [H1343, (R)-1-(1-(2,3-dichlorophenyl)ethyl)-3-(4-(((2-methyl-1,2,3,4-tetrahydroisoquinolin-6-yl)methyl)sulfonyl)phenyl)urea] | 2.1 | > 30000 | 5.2 | 71.9 µL/min/mg | 252.4 µL/min/mg
CC(NC(=O)Nc1ccc(S(=O)(=O)Cc2ccc3c(c2)CCN(C)C3)cc1)c1ccccc1Cl (stereo not shown) [H1344, 1-(1-(2-chlorophenyl)ethyl)-3-(4-(((2-methyl-1,2,3,4-tetrahydroisoquinolin-6-yl)methyl)sulfonyl)phenyl)urea] | 4.1 | > 30000 | 4.4 | 53.5 µL/min/mg | 115.7 µL/min/mg
CC(NC(=O)Nc1ccc(S(=O)(=O)Cc2ccc3c(c2)CCN(C)C3)cc1)c1cccc(F)c1F (stereo not shown) [H1345, 1-(1-(2,3-difluorophenyl)ethyl)-3-(4-(((2-methyl-1,2,3,4-tetrahydroisoquinolin-6-yl)methyl)sulfonyl)phenyl)urea] | 4.2 | > 30000 | 5.2 | 86.5 µL/min/mg | 166.2 µL/min/mg
CC(NC(=O)Nc1ccc(S(=O)(=O)Nc2ccc3c(c2)CCN(C)C3)cc1)c1cccc(F)c1F (stereo not shown) [H1346, 4-(3-(1-(2,3-difluorophenyl)ethyl)ureido)-N-(2-methyl-1,2,3,4-tetrahydroisoquinolin-6-yl)benzenesulfonamide] | 6.98 | > 30000 | 19.1 | 72.9 µL/min/mg | 69.3 µL/min/mg
CC(NC(=O)Nc1ccc(S(=O)(=O)Nc2ccc3c(c2)CCN(C)C3)cc1)c1ccccc1F (stereo not shown) [H1347, 4-(3-(1-(2-fluorophenyl)ethyl)ureido)-N-(2-methyl-1,2,3,4-tetrahydroisoquinolin-6-yl)benzenesulfonamide] | 7.95 | > 30000 | 26.2 | 59.9 µL/min/mg | 58.1 µL/min/mg
C[C@@H](NC(=O)Nc1ccc(S(=O)(=O)Cc2cc(F)c3c(c2)CN(C)C3)cc1)c1ccccc1 [H1355, (R)-1-(4-(((7-fluoro-2-methylisoindolin-5-yl)methyl)sulfonyl)phenyl)-3-(1-phenylethyl)urea] | 12.9 | > 30000 | 41 | 153.5 µL/min/mg | 304.3 µL/min/mg
CC(NC(=O)Nc1ccc(S(=O)(=O)Cc2cc3c(s2)CCN(C)C3)cc1)c1cccc(Cl)c1Cl (stereo not shown) [H1359, 1-(1-(2,3-dichlorophenyl)ethyl)-3-(4-(((5-methyl-4,5,6,7-tetrahydrothieno[3,2-c]pyridin-2-yl)methyl)sulfonyl)phenyl)urea] | 4 | > 30000 | 1.5 | H = 108.6 M = 108.6 R = not reported D = not reported μL/min/mg | H = 108.6 M = 108.6 R = not reported D = not reported μL/min/mg
C[C@@H](NC(=O)Nc1ccc(S(=O)(=O)Cc2ccc3c(c2F)CN(C)C3)cc1)c1ccccc1 [H1363, (R)-1-(4-(((4-fluoro-2-methylisoindolin-5-yl)methyl)sulfonyl)phenyl)-3-(1-phenylethyl)urea] | 3.15 | > 30000 | 8.4 | 140.1 µL/min/mg | 335.3 µL/min/mg
C[C@@H](NC(=O)Nc1ccc(S(=O)(=O)Nc2ccnc(N)n2)cc1)c1cccc(Cl)c1Cl [H1364, (R)-N-(2-aminopyrimidin-4-yl)-4-(3-(1-(2,3-dichlorophenyl)ethyl)ureido) benzenesulfonamide] | 130 | > 30000 | 29.6 | < 10 µL/min/mg | 36 µL/min/mg
CC(NC(=O)Nc1ccc(S(=O)(=O)Cc2cc3c(s2)CN(C)CC3)cc1)c1cccc(Cl)c1Cl (stereo not shown) [H1384, 1-(1-(2,3-dichlorophenyl)ethyl)-3-(4-(((6-methyl-4,5,6,7-tetrahydrothieno[2,3-c]pyridin-2-yl)methyl)sulfonyl)phenyl)urea] | 2.4 | > 30000 | 5.95 | 95.1 µL/min/mg | 165.1 µL/min/mg
CC(NC(=O)Nc1ccc(S(=O)(=O)Cc2cc3c(cc2F)CNCC3)cc1)c1cccc(Cl)c1Cl (stereo not shown) [H1385, 1-(1-(2,3-dichlorophenyl)ethyl)-3-(4-(((7-fluoro-1,2,3,4-tetrahydroisoquinolin-6-yl)methyl)sulfonyl)phenyl)urea] | 6.5 | > 30000 | 3.98 | H = <10 M = <10 μL/min/mg | H = <10 M = <10 μL/min/mg
COc1cc(S(=O)(=O)Cc2ccc3c(c2)CCNC3)ccc1NC(=O)NC(C)c1ccccc1 (stereo not shown) [H1386, 1-(2-methoxy-4-(((1,2,3,4-tetrahydroisoquinolin-6-yl)methyl)sulfonyl)phenyl)-3-(1-phenylethyl)urea] | 11.7 | > 30000 | 21.2 | < 10 µL/min/mg | 11 µL/min/mg
COc1cc(S(=O)(=O)Cc2ccc3c(c2)CCN(C)C3)ccc1NC(=O)NC(C)c1ccccc1 (stereo not shown) [H1387, 1-(2-methoxy-4-(((2-methyl-1,2,3,4-tetrahydroisoquinolin-6-yl)methyl)sulfonyl)phenyl)-3-(1-phenylethyl)urea] | 3.7 | > 30000 | 7.4 | 86.7 µL/min/mg | 167.5 µL/min/mg
